According to patent publication US10584108B2, “Therapeutic compounds and methods of use thereof” (KUALITY HERBCEUTICS LLC, priority 2015, dated 2020):

How the values were obtained:
[1] = tested on: CYP1A1 mRNA in Hepe1c1c7 cells; experiment: Test B: in vitro effect on CYP1A1 activation (CYP1A1 mRNA by q-RT PCR); format: cell-based; settings: 5 μM in 0.5% DMSO, ratio treated to untreated, normalized to GAPDH mRNA
Method: The ability of a compound of the invention to effect CYP1A1 activation may be determined using pharmacological models which are well known to the art, or using Test B described below.
General Procedures of the In Vitro Effect on CYP1A1 Activation
Hepe1c1c7 cells were cultured under standard conditions and seeded in 6-well plate. After complete attachment (12-24 hours after seeding), the cells were treated with the corresponding compounds at the concentration of 5 μM, supplemented in 0.5% DMSO. Cells were trypsinized and pelleted. mRNAs were isolated. The relative amount of CYP1A1 mRNA were quantified via q-RT PCR and normalized to the amount of GAPDH mRNA from the same sample. Induction of CYP1A1 mRNA is defined as the ratio of CYP1A1 mRNA between treated samples to the untreated sample.

[2] = tested on: NNK-induced O^6-mG in A/J mouse lung tissues; experiment: Test A: in vivo effect on NNK-induced O^6-mG in A/J mouse lung tissues; settings: A/J mice, compound 0.2 mg/g of diet for seven days, NNK 100 mg/kg i.p., lung tissue four hours after NNK
Description: The ability of a compound of the invention to effect NNK-induced O^6-mG in A/J mouse lung tissues may be determined using pharmacological models which are well known to the art, or using Test A described below.
General Procedure of the In Vivo Effect on NNK-induced O^6-mG in A/J Mouse Lung Tissues
Five-six week old A/J mice were purchased from Jackson Lab. After one week of acclimatization, mice were randomized into different groups. Mice were given to the AIN-G powdered diet supplemented with the corresponding compound at a dose of 0.2 mg/g of diet for seven days. Subsequently, with the exception of mice in the negative control groups, animals were given NNK (100 mg/kg of bodyweight at the beginning of Day 7 via i.p. injection) (control mice will be given saline). Four hours NNK administration, mice in each group were euthanized with serum, urine, lung and liver tissues collected. O^6-mG DNA adducts in the lung tissues were quantified following established procedures (1, 2). The relative amount of reduction was calculated as the percentage of reduction relative the amount of O^6-mG in the NNK-treated positive control group.

[3] = tested on: NNK-induced lung tumorigenesis; settings: background statement, literature; cited from earlier work
[4] = tested on: NNK-induced DNA damage (O^6-mG); settings: background statement, literature; cited from earlier work
[5] = target: T1, aryl hydrocarbon receptors (Homo sapiens, UniProt P35869); settings: background statement, literature; cited from earlier work
T1 sequence (P35869 11-848): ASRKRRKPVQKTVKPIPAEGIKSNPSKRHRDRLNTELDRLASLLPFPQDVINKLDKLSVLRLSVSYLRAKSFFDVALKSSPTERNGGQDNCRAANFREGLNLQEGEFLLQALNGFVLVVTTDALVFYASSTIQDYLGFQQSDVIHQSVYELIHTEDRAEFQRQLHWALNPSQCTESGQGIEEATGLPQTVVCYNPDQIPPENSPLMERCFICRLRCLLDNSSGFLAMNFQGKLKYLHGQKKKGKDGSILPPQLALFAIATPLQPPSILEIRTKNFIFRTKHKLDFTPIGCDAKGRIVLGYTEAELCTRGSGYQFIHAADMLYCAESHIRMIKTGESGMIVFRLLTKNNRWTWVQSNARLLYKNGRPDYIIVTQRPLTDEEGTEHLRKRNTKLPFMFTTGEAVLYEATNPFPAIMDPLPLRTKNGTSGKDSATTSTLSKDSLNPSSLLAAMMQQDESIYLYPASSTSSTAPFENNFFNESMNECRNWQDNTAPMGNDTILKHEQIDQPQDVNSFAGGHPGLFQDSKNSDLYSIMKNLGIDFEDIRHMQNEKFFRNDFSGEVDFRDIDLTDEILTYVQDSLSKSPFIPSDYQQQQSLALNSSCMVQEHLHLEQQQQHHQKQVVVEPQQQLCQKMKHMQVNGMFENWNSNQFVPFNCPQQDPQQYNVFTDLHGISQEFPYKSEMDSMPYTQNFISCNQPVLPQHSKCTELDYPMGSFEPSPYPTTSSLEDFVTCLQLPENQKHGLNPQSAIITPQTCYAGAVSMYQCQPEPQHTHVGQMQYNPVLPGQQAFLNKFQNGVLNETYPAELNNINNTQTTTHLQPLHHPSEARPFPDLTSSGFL

SMILES | Induction of CYP1A1 mRNA [1] | Relative amount of reduction in O^6-mG (mean ± SD) % in comparison to NNK-treated control [2] [%] | further results
COC1=CC(=O)CC(CCc2ccc3c(c2)CCC3)C1 (stereo not drawn) |  | 11.8 ± 23.1 | 
COC1=CC(=O)O[C@@H](CCc2ccc3c(c2)OCO3)C1 [(+)-Dihydromethysticin] |  |  | Block of NNK-induced lung tumorigenesis [3]: effectively block; Inhibition of NNK-induced O^6-mG DNA damage [4]: can be inhibited
COC1=CC(=O)OC(/C=C/c2ccc3c(c2)OCCO3)C1 (stereo not drawn) [drawing 40] | 1.15 ± 0.02 | 5.2 ± 13.0 | 
COC1=CC(=O)O[C@H](CCc2ccc3c(c2)OCO3)C1 |  | 79.6 ± 1.5 | 
COC1=CC(=O)OC(/C=C/c2ccc3c(c2)OCO3)C1 (stereo not drawn) | 0.26 ± 0.01 | 54.6 ± 1.2 | 
COC1=CC(=O)OC(/C=C/c2ccc3c(c2)OCCO3)C1 (stereo not drawn) [drawing 65] |  | 5.2 ± 13.0 | 
COC1=CC(=O)OC(CCc2ccc3c(c2)OCO3)C1 (stereo not drawn) |  | 72.7 ± 6.6 | 
COC1=CC(=O)O[C@@H](CCc2ccc3c(c2)OCO3)C1 [drawing 26] | 1.88 ± 0.07 | 76.9 ± 2.6 | 
COC1=CC(=O)O[C@@H](CCc2ccc3c(c2)OCO3)C1 [dihydromethysticin] |  |  | Activation of aryl hydrocarbon receptors [5]: activate

Now from value to compound, other results behind:

Induction of CYP1A1 mRNA [1] | SMILES | Relative amount of reduction in O^6-mG (mean ± SD) % in comparison to NNK-treated control [2] [%] | further results
1.20 ± 0.1 | O=C1C=C(O)CC(CCc2ccc3c(c2)OCO3)O1 (stereo not drawn) | 55.9 ± 19.7 | 
2.16 ± 0.11 | COC1=CC(=O)OC(CCc2ccc3c(c2)OCO3)C1C (stereo not drawn) |  | 
0.59 ± 0.04 | COC1=C(C)C(=O)OC(CCc2ccc3c(c2)OCO3)C1 (stereo not drawn) | 65.3 ± 5.8 | 
3.73 ± 0.26 | COC1=CC(=O)OC(CCc2ccc3c(c2)OCCO3)C1 (stereo not drawn) | 3.24 ± 13.4 | 
2.49 ± 0.08 | COC1=CC(=O)OC(C)(CCc2ccc3c(c2)OCO3)C1 (stereo not drawn) | 56.2 ± 8.1 | 
5.94 ± 0.22 | O=C1C=CCC(CCc2ccc3c(c2)OCO3)O1 (stereo not drawn) | 35.2 ± 31.8 | 
0.79 ± 0.02 | COC1=CC(=O)OC(CCc2ccc3c(c2)CCC3)C1 (stereo not drawn) | 29.7 ± 16.3 | 
5.58 ± 0.55 | COC1=CC(=O)CC(CCc2ccc3c(c2)OCO3)C1 (stereo not drawn) | 63.7 ± 21.9 | 
5.61 ± 0.40 | COC1=CC(=O)OC(CCc2ccc(OC)c(O)c2)C1 (stereo not drawn) | −2.6 ± 14.7 | 
